This is an account of results in patent US4654342A, “6-(cyanoguanidinophenyl)pyridazinones as cardiac stimulants” (Smith Kline & French Laboratories Ltd., priority 1984, dated 1987).

Molecules are shown by their SMILES. Where two headings read alike, the source gives them in different places.

Assay [1] relates to right ventricular strips. In words: Cardiac stimulant activity in vitro, guinea pig ventricular strips (force of contraction). As to the method:
The compounds of formula (I) and their pharmaceutically acceptable salts are tested for cardiac stimulant activity following a procedure based on that of S. C. Verma and J. H. McNeill (J.Pharm & Exp. Therapeutics, 200, 352-362 (1977)). Guinea pigs (500-700 g) of either sex are sacrificed and the hearts are quickly removed and transferred to a dissecting dish containing oxygenated bathing fluid. While in the bathing medium, the right ventricle is cut into two strips. The strips are each suspended in a 50 ml bath containing Krebs Henseleit solution at 37° C., and the bath is bubbled with 95% oxygen and 5% carbon dioxide. The ventricular strips are electrically stimulated at a frequency of 1.0 Hz, at double the threshold voltage. A resting tension of 1.0 g is applied to the strips and the tension is kept constant by readjustment during an equilibration period of 60 minutes. The bathing fluid is frequently changed during this period. When a steady base line is obtained, a compound under test is added to the bathing fluid and a cumulative concentration response curve is plotted. The compounds for use in the present invention which were tested gave a 50% increase in the force of contraction of the ventricular strips at concentrations in the bathing fluid of less than 10^-4 molar, thus showing that they have activity as positive inotropic agents.

Assay [2] relates to left ventricular dp/dt max. Put plainly: Cardiac stimulant activity in vivo, anaesthetised cats (left ventricular dp/dt max). Also noted: species or system cat; key to Relative Duration: ***: long; **: medium; *: short. The note with it: for ED50: Felis catus, intravenous, dose to increase left ventricular dp/dt max by 50%, anaesthetised cats; for Relative Duration: estimated in anaesthetised cats following i.v. administration; for positive inotropism, relative to the (+)-isomer: anaesthetised cat screen. From the text:
The dose to increase left ventricular dp/dt max by 50% is given as the ED50.

The target of assay [3] is T1, Type (III) PDE (Cavia porcellus, UniProt H0VIU9).
T1 construct: phosphodiesterases (PDE) isolated from guinea pig ventricle; from tissue; host or cells: guinea pig ventricle; forms separated by ion-exchange chromatography
T1 sequence (H0VIU9 1-1132): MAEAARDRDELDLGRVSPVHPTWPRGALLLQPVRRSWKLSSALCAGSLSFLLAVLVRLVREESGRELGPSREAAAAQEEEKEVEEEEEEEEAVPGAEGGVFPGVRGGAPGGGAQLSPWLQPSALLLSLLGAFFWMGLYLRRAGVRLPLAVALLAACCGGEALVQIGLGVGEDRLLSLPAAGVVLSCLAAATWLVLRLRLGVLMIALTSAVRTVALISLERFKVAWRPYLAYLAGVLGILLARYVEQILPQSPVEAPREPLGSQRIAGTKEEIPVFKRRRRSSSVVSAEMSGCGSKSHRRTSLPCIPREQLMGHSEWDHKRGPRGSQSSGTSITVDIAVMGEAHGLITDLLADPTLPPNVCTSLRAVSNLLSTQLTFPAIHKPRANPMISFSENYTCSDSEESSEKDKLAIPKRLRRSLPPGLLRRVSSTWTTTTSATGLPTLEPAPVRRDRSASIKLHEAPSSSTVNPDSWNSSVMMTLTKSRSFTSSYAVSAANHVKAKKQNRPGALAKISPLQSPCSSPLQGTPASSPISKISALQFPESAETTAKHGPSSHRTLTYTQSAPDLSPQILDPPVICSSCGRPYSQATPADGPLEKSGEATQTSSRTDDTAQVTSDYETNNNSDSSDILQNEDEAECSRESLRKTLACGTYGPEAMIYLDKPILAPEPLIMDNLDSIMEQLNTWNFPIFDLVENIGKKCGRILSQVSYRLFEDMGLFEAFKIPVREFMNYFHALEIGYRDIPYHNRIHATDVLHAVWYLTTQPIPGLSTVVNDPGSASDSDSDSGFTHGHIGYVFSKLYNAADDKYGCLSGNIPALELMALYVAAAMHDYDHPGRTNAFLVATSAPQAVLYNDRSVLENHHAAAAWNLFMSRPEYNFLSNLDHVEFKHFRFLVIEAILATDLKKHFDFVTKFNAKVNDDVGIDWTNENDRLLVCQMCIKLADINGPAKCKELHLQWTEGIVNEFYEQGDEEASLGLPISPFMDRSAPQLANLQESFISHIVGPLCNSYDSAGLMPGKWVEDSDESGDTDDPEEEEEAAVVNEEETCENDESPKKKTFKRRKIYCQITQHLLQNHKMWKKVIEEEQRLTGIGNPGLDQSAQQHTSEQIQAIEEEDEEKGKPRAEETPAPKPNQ
Put plainly: Phosphodiesterase Type (III) inhibition. The assay is classed as biochemical, guinea pig. The note with it: 1 μm cyclic AMP, 10 minutes; 10 minutes pre-incubation; read-out: IC50, inhibition of `low Km` Type (III) PDE activity. As to the method:
The products of Example 13 were tested for selectivity as inhibitors of the phosphodiesterases (PDE) isolated from guinea pig ventricle. Three forms of PDE were isolated by ion-exchange chromatography using the method of Thompson et al, Adv. Nucleotide Research, vol 10, p 69, Brooker et al (Eds), Raven Press, 1979.
In separate experiments with the (-)-isomer, the (+)-isomer and racemic material, following a 10 minutes pre-incubation of the test compound with Type (III) PDE, PDE activity was measured at 1 μm cyclic AMP for 10 minutes (using a modification of the method of Davis and Daly, Journal of Cyclic Nucleotide Research, vol 5, p 65, Raven Press, 1979). IC50 values were obtained for inhibition of `low Km` Type (III) PDE activity: […]

The subject of assay [4] is left ventricular dp/dt max. Put plainly: Cardiac stimulant activity in vivo, conscious dogs (left ventricular dp/dt max). Also on record: species or system dog. As to the method: Oral administration caused positive inotropic responses at doses of 0.25 mg/kg and below. […] Therefore this compound is particularly beneficial with regard to `force-rate` selectivity.
For assay [5], the system named is hindquarters blood flow. Put plainly: Vasodilator activity, anaesthetised rat hindquarters autoperfused at constant blood pressure. In kind it is in vivo. The conditions noted are these: anaesthetised rat hindquarters screen. From the text: The dose to increase hindquarters blood flow by 50% was 4.6 μmol/Kg.
Assay [6] deals with hindquarters perfusion pressure. In words: Vasodilator activity, anaesthetised cat hindquarters autoperfused at constant blood flow. In kind it is in vivo. The note with it: for vasodilatation, relative to the (+)-isomer: anaesthetised cat screen; for ED15: Felis catus, anaesthetised cat, constant blood flow, read-out: dose to decrease hindquarters perfusion pressure (vasodilatation) by 15%. How it is done: The compounds of Examples 3, 4, 5 and 8 were tested in autoperfused anaesthetised cat hindquarters (autoperfused at constant blood flow). The doses to decrease hindquarters perfusion pressure (vasodilatation) by 15% are given below: […]

Setting [7] is: Cavia porcellus, 50% increase in force of contraction, guinea pig ventricular strips, read-out: EC50 × 10^-6 M.
Where [8] appears, read: in vitro, read-out: EC50 value, inotropic activity on guinea pig ventricular strip.

Regarding `CC1CC(=O)NN=C1c1ccc(NC(N)=NC#N)cc1` (stereo not drawn) [Example 6, 6-[4-(N^2 -Cyanoguanidino)phenyl]-5-methyl-4,5-dihydro-3(2H)-pyridazinone], in assay [1] (setting [7]), the EC50 was determined as 1400 nM. Moreover, in assay [2], the ED50 stood at 0.7 µmol/kg and the “Relative Duration” value is listed as “***”.
Broadly, the IC50 is the concentration needed to halve the response being measured. On to `CC1CC(=O)NN=C1c1ccc(N)cc1` (single isomer, unassigned; (+)) [(+)-isomer, (+)-6-(4-aminophenyl)-5-methyl-4,5-dihydro-3(2H)-pyridazinone], for which the EC50 in assay [1] (setting [8]) came to 11300 nM. Also, the half-inhibitory concentration (IC50) in assay [3] came out at 207 ± 88 µM.
Regarding `Nc1cc(-c2ccncc2)c[nH]c1=O` [Amrinone, reference compound], in assay [4], the “activity relative to compound of Example 1” value was “less active” and the “duration relative to compound of Example 1” value was “of shorter duration”. The EC50 in assay [1] (setting [7]) came out at 15000 nM. Also, in assay [2], the ED50 worked out at 5.6 µmol/kg and the “Relative Duration” value is reported as “*”.
As for `CNC(=NC#N)Nc1ccc(C2=NNC(=O)CC2C)cc1` (single isomer, unassigned; (+)) [Example 15, (+)-6-[4-(N^3 -Methyl-N^2-cyanoguanidino)phenyl]-5-methyl-4,5-dihydro-3(2H)-pyridazinone], in assay [1] (setting [8]), the EC50 was found to be 4300 nM. In addition, the “dose to increase hindquarters blood flow by 50%” value in assay [5] amounted to 8.6 µM/kg. Moreover, the IC50 in assay [3] is 11.3 ± 5.4 µM.
`CNC(=NC#N)Nc1ccc(C2=NNC(=O)CC2C)cc1` (single isomer, unassigned; (-)) [Example 14, (-)-6-[4-(N^3 -Methyl-N^2-cyanoguanidino)phenyl]-5-methyl-4,5-dihydro-3(2H)-pyridazinone]: in assay [1] (setting [8]), the EC50 amounted to 710 nM. The “dose to increase hindquarters blood flow by 50%” value in assay [5] came out at 2.4 µM/kg. The IC50 in assay [3] was 1.7 ± 1 µM. Also, the “positive inotropism, relative to the (+)-isomer” value in assay [2] was “more active than the corresponding (+)-isomer of Example 15”. In addition, the “vasodilatation, relative to the (+)-isomer” value in assay [6] is “more active than the corresponding (+)-isomer of Example 15”.
Take `CC1CC(=O)NN=C1c1ccc(N)cc1` (racemic) [racemate, 6-(4-aminophenyl)-5-methyl-4,5-dihydro-3(2H)-pyridazinone]: the IC50 in assay [3] was determined as 37 ± 12.9 µM.
On to `CCNC(=NC#N)Nc1ccc(C2=NNC(=O)CC2C)cc1` (stereo not drawn) [Example 3, 6-[4-(N^3 -Ethyl-N^2-cyanoguanidino)phenyl]-5-methyl-4,5-dihydro-3(2H)-pyridazinone], for which the EC50 in assay [1] (setting [7]) stood at 1400 nM. In assay [2], the ED50 came to 0.2 µmol/kg and the “Relative Duration” value is “***”. In addition, the ED15 in assay [6] came to 0.044 mg/kg.
The matching figures for `CCCCNC(=NC#N)Nc1ccc(C2=NNC(=O)CC2C)cc1` (stereo not drawn) [Example 5, 6-[4-(N^3 -Butyl-N^2-cyanoguanidino)phenyl]-5-methyl-4,5-dihydro-3(2H)-pyridazinone]: 8500 nM, 0.31 µmol/kg, “**” and 0.13 mg/kg.
For `CC1CC(=O)NN=C1c1ccc(N)cc1` (single isomer, unassigned; (-)) [(-)-isomer, (-)-6-(4-aminophenyl)-5-methyl-4,5-dihydro-3(2H)-pyridazinone], the EC50 in assay [1] (setting [8]) amounted to 1400 nM. Also, the IC50 in assay [3] turned out to be 9.6 ± 3.4 µM. Also, the “positive inotropism, relative to the (+)-isomer” value in assay [2] is given as “more active than the (+)-isomer”. Also, the “vasodilatation, relative to the (+)-isomer” value in assay [6] is “more active than the (+)-isomer”.
On to `CC(C)NC(=NC#N)Nc1ccc(C2=NNC(=O)CC2C)cc1` (stereo not drawn) [Example 4, 6-[4-(N^3 -Isopropyl-N^2-cyanoguanidino)phenyl]-5-methyl-4,5-dihydro-3(2H)-pyridazinone], for which the EC50 in assay [1] (setting [7]) came out at 800 nM. In assay [2], the ED50 came to 0.2 µmol/kg and the “Relative Duration” value is “**”. Besides, the ED15 in assay [6] was found to be 0.082 mg/kg.
With `CNC(=NC#N)Nc1ccc(C2=NNC(=O)CC2)cc1` [Example 8, 6-[4-(N^3 -Methyl-N^2-cyanoguanidino)phenyl]-4,5-dihydro3(2H)-pyridazinone], the activation at 31.6 µM in assay [1] (Cavia porcellus, at 31.6 × 10^-6 M, read-out: increase in force of contraction (printed in EC50 column)) amounted to 40%. In addition, in assay [2], the ED50 was found to be 1.6 µmol/kg and the “Relative Duration” value is on record as “**”. In addition, the ED15 in assay [6] was 1 mg/kg.
